Measured values published in patent publication US12371428B2 (Exelixis, Inc., priority 2019, dated 2025).
Counter-ions that a name gives are not always drawn.

Legend:
[1] = target: Human KDR (residues 790-1356) (Homo sapiens (Human), UniProt P35968); experiment: Human KDR kinase assay, HTRF KinEase (Example B-2); type: biochemical; conditions: protocol of Example B-2 (other compounds)
In short: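 Ten compound concentrations (3% DMSO final) were pre-plated, then KDR (790-1356) with biotinylated peptide in Mg/Mn/DTT buffer was added; ATP at Km (4.0 μM) started a 40 min room-temperature reaction. Detection used Eu-TK antibody and SA-XL665 in EDTA buffer; activity normalized to DMSO and reference inhibitor, IC50 by logistic fit.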

[2] = target: KDR (phospho-KDR, VEGF165-stimulated HUVEC cells) (Homo sapiens (Human), UniProt P35968); experiment: KDR autophosphorylation ELISA in HUVEC cells (Example G); type: cell-based; conditions: cellular activity; KDR autophosphorylation ELISA in HUVEC cells
In short: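 First, endothelial cells were cultured a day, then kept without serum for another day. Next came 1 h with serially diluted compound, a brief 5 min VEGF165 stimulus (100 ng/mL), rapid lysis, and ELISA detection of receptor phosphorylation relative to stimulated and non-stimulated controls.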

Sequence of KDR (phospho-KDR, VEGF165-stimulated HUVEC cells) (P35968 20-1356): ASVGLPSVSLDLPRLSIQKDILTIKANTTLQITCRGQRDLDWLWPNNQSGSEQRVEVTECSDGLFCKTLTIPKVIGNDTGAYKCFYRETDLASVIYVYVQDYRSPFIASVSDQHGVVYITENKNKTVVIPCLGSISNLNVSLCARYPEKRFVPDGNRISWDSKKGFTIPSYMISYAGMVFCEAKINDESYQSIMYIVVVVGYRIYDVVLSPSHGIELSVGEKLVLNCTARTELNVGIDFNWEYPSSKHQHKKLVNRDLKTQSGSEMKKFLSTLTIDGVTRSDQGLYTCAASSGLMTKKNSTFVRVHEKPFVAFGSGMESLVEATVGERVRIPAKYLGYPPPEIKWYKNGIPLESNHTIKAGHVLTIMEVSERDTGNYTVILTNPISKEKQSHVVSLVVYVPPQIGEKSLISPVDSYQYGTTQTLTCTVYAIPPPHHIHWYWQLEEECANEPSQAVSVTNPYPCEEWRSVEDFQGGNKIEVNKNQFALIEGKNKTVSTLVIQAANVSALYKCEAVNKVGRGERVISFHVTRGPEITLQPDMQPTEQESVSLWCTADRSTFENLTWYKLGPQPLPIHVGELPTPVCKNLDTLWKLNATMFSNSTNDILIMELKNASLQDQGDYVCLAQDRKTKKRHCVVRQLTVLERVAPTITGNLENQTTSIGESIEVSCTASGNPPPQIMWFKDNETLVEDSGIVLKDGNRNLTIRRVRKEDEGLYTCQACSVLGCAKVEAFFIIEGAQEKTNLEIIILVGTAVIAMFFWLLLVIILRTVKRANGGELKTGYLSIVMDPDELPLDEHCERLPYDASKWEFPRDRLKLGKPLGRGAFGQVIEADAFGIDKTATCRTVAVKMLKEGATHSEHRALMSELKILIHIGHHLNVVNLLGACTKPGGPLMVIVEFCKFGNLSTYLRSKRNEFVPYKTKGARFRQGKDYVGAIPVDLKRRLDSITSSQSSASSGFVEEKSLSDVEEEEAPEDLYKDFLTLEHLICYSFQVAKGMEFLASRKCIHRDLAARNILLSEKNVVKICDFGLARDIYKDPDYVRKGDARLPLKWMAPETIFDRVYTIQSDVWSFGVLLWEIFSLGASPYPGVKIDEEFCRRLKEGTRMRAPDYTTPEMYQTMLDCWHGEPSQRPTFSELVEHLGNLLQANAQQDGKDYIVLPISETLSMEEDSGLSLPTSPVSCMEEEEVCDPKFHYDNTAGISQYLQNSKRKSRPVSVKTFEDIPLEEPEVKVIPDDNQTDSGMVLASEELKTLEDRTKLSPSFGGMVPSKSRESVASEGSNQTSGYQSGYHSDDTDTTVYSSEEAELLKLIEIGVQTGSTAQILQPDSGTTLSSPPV
Sequence of Human KDR (residues 790-1356) (P35968 790-1356): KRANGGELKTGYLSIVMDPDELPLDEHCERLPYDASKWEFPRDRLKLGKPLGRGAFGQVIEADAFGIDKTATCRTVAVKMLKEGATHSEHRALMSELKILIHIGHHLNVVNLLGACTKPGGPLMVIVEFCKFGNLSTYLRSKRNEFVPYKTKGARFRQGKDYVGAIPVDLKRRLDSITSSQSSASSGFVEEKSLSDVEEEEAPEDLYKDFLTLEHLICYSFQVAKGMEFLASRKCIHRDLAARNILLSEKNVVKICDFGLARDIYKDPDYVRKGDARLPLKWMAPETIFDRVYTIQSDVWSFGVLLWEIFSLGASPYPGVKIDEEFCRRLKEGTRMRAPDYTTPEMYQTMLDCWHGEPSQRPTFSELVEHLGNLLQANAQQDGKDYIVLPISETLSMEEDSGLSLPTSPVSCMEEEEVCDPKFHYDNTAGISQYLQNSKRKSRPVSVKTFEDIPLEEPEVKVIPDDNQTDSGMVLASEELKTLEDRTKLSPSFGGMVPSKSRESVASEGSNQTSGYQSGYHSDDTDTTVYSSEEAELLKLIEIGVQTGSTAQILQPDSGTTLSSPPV

IC50 [1] [nM]	IC50 [2] [nM]	Compound
> 300	> 300	COc1cc2nccc(Oc3ccc(NC(=O)c4cn(C)c(C)c(-c5ccc(F)cc5)c4=O)c(F)c3)c2nc1OC [Compound 389, N-[4-[(6,7-dimethoxy-1,5-naphthyridin-4-yl)oxy]-2-fluorophenyl]-5-(4-fluorophenyl)-1,6-dimethyl-4-oxopyridine-3-carboxamide]
> 300	> 300	CCn1cc(C(=O)Nc2ccc(Oc3ccnc4cc(OC)cnc34)c(F)c2)c(=O)c(-c2ccc(F)cc2C)c1CO [Compound 285, 1-Ethyl-N-[3-fluoro-4-[(7-methoxy-1,5-naphthyridin-4-yl)oxy]phenyl]-5-(4-fluoro-2-methylphenyl)-6-(hydroxymethyl)-4-oxopyridine-3-carboxamide]
> 300	> 300	COCc1c(-c2ccc(F)cc2)c(=O)c(C(=O)Nc2ccc(Oc3ccnc4cc(OC)cnc34)c(F)c2)cn1C [Compound 270, N-[3-Fluoro-4-[(7-methoxy-1,5-naphthyridin-4-yl)oxy]phenyl]-5-(4-fluorophenyl)-6-(methoxymethyl)-1-methyl-4-oxopyridine-3-carboxamide]
< 100	< 100	COc1cc2nccc(Oc3ccc(NC(=O)c4cc(C)c(C)n(-c5ccc(F)cc5)c4=O)cc3F)c2nc1OC [Compound 370, N-[4-[(6,7-dimethoxy-1,5-naphthyridin-4-yl)oxy]-3-fluorophenyl]-1-(4-fluorophenyl)-5,6-dimethyl-2-oxopyridine-3-carboxamide]
100 to 300	> 300	COc1cc2nccc(Oc3cc(F)c(NC(=O)c4cn(C)c(C)c(-c5ccc(F)cc5)c4=O)cc3F)c2nc1OC [Compound 391, N-[4-[(6,7-dimethoxy-1,5-naphthyridin-4-yl)oxy]-2,5-difluorophenyl]-5-(4-fluorophenyl)-1,6-dimethyl-4-oxopyridine-3-carboxamide]
100 to 300	< 100	COc1ccc2nccc(Oc3ccc(NC(=O)c4c(C)cc(C)n(-c5ccc(F)cc5C)c4=O)cc3F)c2n1 [Compound 296, N-[3-Fluoro-4-[(6-methoxy-1,5-naphthyridin-4-yl)oxy]phenyl]-1-(4-fluoro-2-methylphenyl)-4,6-dimethyl-2-oxopyridine-3-carboxamide]
< 100	< 100	COc1cc2nccc(Oc3ccc(NC(=O)c4c(C)cc(C)n(-c5ccc(F)cc5)c4=O)cc3F)c2nc1OC [Compound 279, N-[4-[(6,7-Dimethoxy-1,5-naphthyridin-4-yl)oxy]-3-fluorophenyl]-1-(4-fluorophenyl)-4,6-dimethyl-2-oxopyridine-3-carboxamide]
> 300	< 100	COc1cnc2c(Oc3ccc(NC(=O)c4cccn(-c5ccc(F)cc5)c4=O)cc3F)ccnc2c1 [Compound 291, N-[3-Fluoro-4-[(7-methoxy-1,5-naphthyridin-4-yl)oxy]phenyl]-1-(4-fluorophenyl)-2-oxopyridine-3-carboxamide]
> 300	> 300	COc1cnc2c(Oc3ccc(NC(=O)c4nccn(-c5ccc(F)cc5)c4=O)cc3F)ccnc2c1 [Compound 381, N-[3-fluoro-4-[(7-methoxy-1,5-naphthyridin-4-yl)oxy]phenyl]-4-(4-fluorophenyl)-3-oxopyrazine-2-carboxamide]
> 300	> 300	COc1ccc2nccc(Oc3ccc(NC(=O)c4nccn(-c5ccc(F)cc5)c4=O)cc3)c2n1 [Compound 383, 4-(4-fluorophenyl)-N-[4-[(6-methoxy-1,5-naphthyridin-4-yl)oxy]phenyl]-3-oxopyrazine-2-carboxamide]
< 100	100 to 300	CCn1cc(C(=O)Nc2ccc(Oc3ccnc4cc(OC)c(OC)nc34)c(F)c2)c(=O)c(-c2ccc(F)cc2)c1CO [Compound 271, N-[4-[(6,7-Dimethoxy-1,5-naphthyridin-4-yl)oxy]-3-fluorophenyl]-1-ethyl-5-(4-fluorophenyl)-6-(hydroxymethyl)-4-oxopyridine-3-carboxamide]
< 100	< 100	COc1cc2nccc(Oc3ccc(NC(=O)c4ncc(C)n(-c5ccc(F)cc5C)c4=O)cc3F)c2nc1OC [Compound 393, N-[4-[(6,7-dimethoxy-1,5-naphthyridin-4-yl)oxy]-3-fluorophenyl]-4-(4-fluoro-2-methylphenyl)-5-methyl-3-oxopyrazine-2-carboxamide]
100 to 300	< 100	Cc1ccc(C(=O)Nc2ccc(Oc3ccnc4cc(OCc5ccccc5)cnc34)c(F)c2)c(=O)n1-c1ccc(F)cc1 [Compound 275, 1-(4-Fluorophenyl)-N-[3-fluoro-4-[(7-phenylmethoxy-1,5-naphthyridin-4-yl)oxy]phenyl]-6-methyl-2-oxopyridine-3-carboxamide]
100 to 300	< 100	COc1ccc2nccc(Oc3ccc(NC(=O)c4ccc(C)n(-c5ccc(F)cc5)c4=O)cc3F)c2c1 [Compound 346, N-[3-fluoro-4-(6-methoxyquinolin-4-yl)oxyphenyl]-1-(4-fluorophenyl)-6-methyl-2-oxopyridine-3-carboxamide]
< 100	< 100	COc1ccc2nccc(Oc3ccc(NC(=O)c4c(C)cc(C)n(-c5ccc(F)cc5)c4=O)cc3F)c2n1 [Compound 281, N-[3-Fluoro-4-[(6-methoxy-1,5-naphthyridin-4-yl)oxy]phenyl]-1-(4-fluorophenyl)-4,6-dimethyl-2-oxopyridine-3-carboxamide]
> 300	< 100	COc1ccc2nccc(Oc3ccc(NC(=O)c4cccn(-c5ccc(F)cc5)c4=O)cc3F)c2n1 [Compound 292, N-[3-Fluoro-4-[(6-methoxy-1,5-naphthyridin-4-yl)oxy]phenyl]-1-(4-fluorophenyl)-2-oxopyridine-3-carboxamide]
< 100	< 100	COc1ccc2nccc(Oc3ccc(NC(=O)c4c(C)nc(C)c(-c5ccc(F)cc5)c4O)cc3)c2n1 [Compound 340, 5-(4-fluorophenyl)-4-hydroxy-N-[4-[(6-methoxy-1,5-naphthyridin-4-yl)oxy]phenyl]-2,6-dimethylpyridine-3-carboxamide]
< 100	< 100	COc1cc2nccc(Oc3ccc(NC(=O)c4c(C)cc(C)n(-c5ccc(F)cc5)c4=O)cc3)c2nc1OC [Compound 288, N-[4-[(6,7-Dimethoxy-1,5-naphthyridin-4-yl)oxy]phenyl]-1-(4-fluorophenyl)-4,6-dimethyl-2-oxopyridine-3-carboxamide]
> 300	> 300	CCn1cc(C(=O)Nc2ccc(Oc3ccnc4cc(OC)cnc34)c(F)c2)c(=O)c(-c2ccc(F)cc2)c1CO [Compound 273, 1-Ethyl-N-[3-fluoro-4-[(7-methoxy-1,5-naphthyridin-4-yl)oxy]phenyl]-5-(4-fluorophenyl)-6-(hydroxymethyl)-4-oxopyridine-3-carboxamide]
< 100	< 100	COc1cc2nccc(Oc3ccc(NC(=O)c4c(C)ccn(-c5ccc(F)cc5)c4=O)cc3)c2nc1OC [Compound 299, N-[4-[(6,7-Dimethoxy-1,5-naphthyridin-4-yl)oxy]phenyl]-1-(4-fluorophenyl)-4-methyl-2-oxopyridine-3-carboxamide]
< 100	< 100	COc1cc2nccc(Oc3ccc(NC(=O)c4nccn(-c5ccc(F)cc5)c4=O)cc3F)c2nc1OC [Compound 379, N-[4-[(6,7-dimethoxy-1,5-naphthyridin-4-yl)oxy]-3-fluorophenyl]-4-(4-fluorophenyl)-3-oxopyrazine-2-carboxamide]
100 to 300	< 100	Cc1nc(C)c(-c2ccc(F)cc2)c(O)c1C(=O)Nc1ccc(Oc2ccnc3ccc(OCCN(C)C)nc23)c(F)c1 [Compound 354, N-[4-[[6-[2-(dimethylamino)ethoxy]-1,5-naphthyridin-4-yl]oxy]-3-fluorophenyl]-5-(4-fluorophenyl)-4-hydroxy-2,6-dimethylpyridine-3-carboxamide]
100 to 300	< 100	COc1cc2nccc(Oc3ccc(NC(=O)c4cc(C(C)C)c(C)n(-c5ccc(F)cc5)c4=O)cc3F)c2nc1OC [Compound 368, N-[4-[(6,7-dimethoxy-1,5-naphthyridin-4-yl)oxy]-3-fluorophenyl]-1-(4-fluorophenyl)-6-methyl-2-oxo-5-propan-2-ylpyridine-3-carboxamide]
> 300	< 100	COc1cc2nccc(Oc3ccc(NC(=O)c4cn(C)c(C)c(-c5ccc(F)cc5)c4=O)c(F)c3F)c2nc1OC [Compound 390, N-[4-[(6,7-dimethoxy-1,5-naphthyridin-4-yl)oxy]-2,3-difluorophenyl]-5-(4-fluorophenyl)-1,6-dimethyl-4-oxopyridine-3-carboxamide]
100 to 300	< 100	COc1cc2nccc(Oc3ccc(NC(=O)c4cn(C)cc(-c5ccc(Cl)cc5)c4=O)cc3F)c2nc1OC [Compound 38, 5-(4-Chlorophenyl)-N-[4-[(6,7-dimethoxy-1,5-naphthyridin-4-yl)oxy]-3-fluorophenyl]-1-methyl-4-oxopyridine-3-carboxamide hydrochloride]
100 to 300	< 100	COc1ccc2nccc(Oc3ccc(NC(=O)c4cnc(C)c(-c5ccc(F)cc5)c4O)cc3F)c2c1 [Compound 347, N-[3-fluoro-4-(6-methoxyquinolin-4-yl)oxyphenyl]-5-(4-fluorophenyl)-4-hydroxy-6-methylpyridine-3-carboxamide]
